From US6323001A, “Increasing the trehalose content of organisms by transforming them with combinations of the structural genes for trehalose synthase” (BTG International Ltd., priority 1994, dated 2001) come the findings set out here.

This test concerns the target T1, Tre6P synthase activity of intact trehalose synthase (Saccharomyces cerevisiae, UniProt Q00764).
T1 construct: Intact trehalose synthase was purified from commercial baker's yeast; made in house; host or cells: commercial baker's yeast (native enzyme purified, not recombinant)
The test can be described thus: Tre6P synthase assay of intact trehalose synthase. In kind it is biochemical, baker's yeast. The note with it: for Tre6P synthase activity, Intact Enzyme: 10 mM G6P, 5 mM UDPG, 5 mM F6P, without phosphate = 100%; for EC50: read-out: K1/2 of activation by F6P. How it is done: With microbial materials, Tre6Pase and Tre6P synthase standard assays and other kinetic measurements were made as described by Londesborough & Vuorio [(1991) loc. cit.] except that the standard Tre6P synthase assay mixture contained 5 mM F6P unless stated otherwise.
Removal of the N-terminal 325 or so amino acids from the 123 kDa long chain of intact trehalose synthase by treatment with trypsin in vitro produces an enzyme with catalytic properties like those of the truncated enzyme purified by Londesborough & Vuorio [(1991) loc. cit.]. In one experiment intact trehalose synthase (0.28 Tre6P synthase units, ≈9.4 μg) was incubated with or without 0.5 μg of trypsin at 30° C. in 250 μl of 13 mM HEPES pH 7.0 containing 1 mM MgCl2, 0.5 mM EDTA, 0.5 mM dithiothreitol, 0.2 M NaCl and 0.5 mM benzamidine. Its Tre6P synthase activity was determined at intervals using standard assay mixtures (containing 5 mM F6P) containing no or 4 mM K phosphate pH 6.8, and samples were prepared for SDS-PAGE analysis immediately before and 48 min after addition of the trypsin.
Truncated trehalose synthase was prepared as described by Londesborough & Vuorio [(1991) loc. cit.] and contained the 57 kDa short chain and 86 and 93 kDa fragments of the long chain. Intact trehalose synthase was prepared as in Example 1. Kinetic assays were done at 30° C. as described in General Methods and Materials.

Molecules are shown by their SMILES. Where two headings read alike, the source gives them in different places.

T1 sequence (P31688 whole entry): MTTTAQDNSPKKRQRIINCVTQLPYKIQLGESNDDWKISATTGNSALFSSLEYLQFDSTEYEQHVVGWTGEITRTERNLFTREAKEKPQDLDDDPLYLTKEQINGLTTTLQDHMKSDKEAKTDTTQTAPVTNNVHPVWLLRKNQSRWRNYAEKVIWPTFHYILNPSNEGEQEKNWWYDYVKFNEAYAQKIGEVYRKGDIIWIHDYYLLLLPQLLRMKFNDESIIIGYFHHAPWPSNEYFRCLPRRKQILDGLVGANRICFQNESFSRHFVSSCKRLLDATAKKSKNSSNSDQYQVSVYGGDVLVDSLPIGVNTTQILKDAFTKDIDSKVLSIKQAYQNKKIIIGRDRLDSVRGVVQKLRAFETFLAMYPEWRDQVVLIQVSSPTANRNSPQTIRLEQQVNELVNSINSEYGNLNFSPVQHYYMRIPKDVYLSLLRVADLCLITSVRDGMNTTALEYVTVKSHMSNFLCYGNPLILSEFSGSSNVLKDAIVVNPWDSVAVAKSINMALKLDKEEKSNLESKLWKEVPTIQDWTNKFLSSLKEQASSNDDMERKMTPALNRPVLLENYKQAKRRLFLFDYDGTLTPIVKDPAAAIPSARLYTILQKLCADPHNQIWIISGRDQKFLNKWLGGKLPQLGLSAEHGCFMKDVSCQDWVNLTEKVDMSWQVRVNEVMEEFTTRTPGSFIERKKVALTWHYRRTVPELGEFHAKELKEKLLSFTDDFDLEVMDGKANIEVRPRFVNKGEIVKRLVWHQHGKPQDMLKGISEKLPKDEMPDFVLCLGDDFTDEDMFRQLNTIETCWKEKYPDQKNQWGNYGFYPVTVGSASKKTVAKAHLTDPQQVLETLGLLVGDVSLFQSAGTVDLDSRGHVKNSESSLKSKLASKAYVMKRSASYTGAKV
T1 sequence (P38427 whole entry, further chain): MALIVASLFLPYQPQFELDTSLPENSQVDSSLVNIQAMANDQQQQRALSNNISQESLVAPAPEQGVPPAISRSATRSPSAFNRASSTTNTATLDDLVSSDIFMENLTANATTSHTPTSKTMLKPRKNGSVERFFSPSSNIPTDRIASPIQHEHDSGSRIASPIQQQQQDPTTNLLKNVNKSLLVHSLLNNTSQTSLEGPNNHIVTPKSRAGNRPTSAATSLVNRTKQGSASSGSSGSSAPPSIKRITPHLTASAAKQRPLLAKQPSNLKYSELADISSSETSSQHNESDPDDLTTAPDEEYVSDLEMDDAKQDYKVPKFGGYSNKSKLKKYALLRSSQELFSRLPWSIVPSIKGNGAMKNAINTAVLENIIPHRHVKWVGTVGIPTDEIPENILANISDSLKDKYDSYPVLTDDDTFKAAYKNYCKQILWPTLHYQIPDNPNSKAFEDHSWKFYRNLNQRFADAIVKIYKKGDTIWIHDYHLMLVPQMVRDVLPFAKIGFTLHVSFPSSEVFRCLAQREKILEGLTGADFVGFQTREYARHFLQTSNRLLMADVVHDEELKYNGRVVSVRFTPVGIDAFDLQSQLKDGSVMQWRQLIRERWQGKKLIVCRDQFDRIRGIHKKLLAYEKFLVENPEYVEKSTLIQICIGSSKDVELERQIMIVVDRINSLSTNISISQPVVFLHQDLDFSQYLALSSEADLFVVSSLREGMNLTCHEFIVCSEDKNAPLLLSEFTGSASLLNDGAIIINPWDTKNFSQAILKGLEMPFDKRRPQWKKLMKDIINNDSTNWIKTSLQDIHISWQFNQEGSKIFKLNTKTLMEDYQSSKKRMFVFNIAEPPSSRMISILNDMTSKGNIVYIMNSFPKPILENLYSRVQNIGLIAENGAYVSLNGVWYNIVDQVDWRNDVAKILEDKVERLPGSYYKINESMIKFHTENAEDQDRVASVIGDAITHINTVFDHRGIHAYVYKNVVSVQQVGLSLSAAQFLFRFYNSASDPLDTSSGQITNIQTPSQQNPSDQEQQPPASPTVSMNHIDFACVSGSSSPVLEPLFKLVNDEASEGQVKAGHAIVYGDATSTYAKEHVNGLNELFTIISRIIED
T1 sequence (Q00764 whole entry): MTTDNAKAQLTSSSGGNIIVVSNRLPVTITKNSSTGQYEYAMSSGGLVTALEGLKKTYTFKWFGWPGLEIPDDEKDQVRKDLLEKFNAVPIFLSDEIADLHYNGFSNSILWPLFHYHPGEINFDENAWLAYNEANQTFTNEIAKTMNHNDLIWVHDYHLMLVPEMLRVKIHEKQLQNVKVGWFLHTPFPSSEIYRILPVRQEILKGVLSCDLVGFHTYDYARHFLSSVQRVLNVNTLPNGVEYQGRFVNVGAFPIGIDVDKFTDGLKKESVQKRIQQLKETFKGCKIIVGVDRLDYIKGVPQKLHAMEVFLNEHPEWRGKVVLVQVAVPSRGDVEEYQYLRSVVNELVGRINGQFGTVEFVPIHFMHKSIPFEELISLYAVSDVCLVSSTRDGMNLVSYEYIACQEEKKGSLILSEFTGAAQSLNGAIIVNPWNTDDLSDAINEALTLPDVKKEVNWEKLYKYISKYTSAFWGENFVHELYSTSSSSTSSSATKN

Consider `O=P(O)(O)O` [phosphate, K phosphate], for which the “Tre6P synthase activity, Intact Enzyme” value runs as follows: (1.3 mM added K phosphate pH 6.8) 69%; (4.0 mM added K phosphate pH 6.8) 14%.

Consider `O=C(CO)[C@@H](O)[C@H](O)[C@H](O)COP(=O)(O)O` [Transformant F6P, Fructose 6-phosphate], for which the EC50 by setting is: (1.3 mM phosphate) 1400 µM; (no added phosphate) 60 µM.
